Results: the Kinase Knowledgebase extract (Sharma et al. 2016)
pIC50: −log10 of the molar value.

Biological target: CDK2 (human) (UniProt P24941)
Assay: Enzyme Assay

SMILES	pIC50
O=c1[nH]c2ccccc2cc1-c1csc(-c2ccnc(NCCCO)c2)n1	> 6.00
CC(C)CNCc1ccc2cc(-c3csc(-c4ccncc4)n3)c(=O)[nH]c2c1	> 6.00
CCN(CC)C(=O)c1ccc2cc(-c3csc(N(C)S(=O)(=O)c4ccccc4)n3)c(=O)[nH]c2c1	> 6.00
CC(C)NC[C@H]1CCCN1Cc1ccc2cc(-c3csc(CS(=O)(=O)c4ccccc4)n3)c(=O)[nH]c2c1	> 6.00
CN(C)CCOc1ccc2cc(-c3csc(-c4ccncc4)n3)c(=O)[nH]c2c1	> 6.00
O=c1[nH]c2cc(CN3CCC(O)C3)ccc2cc1-c1csc(-c2ccncc2)n1 (stereo not given)	> 6.00
CCNCCNc1ncc2cc(-c3csc(-c4ccncc4)n3)c(=O)[nH]c2n1	> 6.00
CCN(CC)CCN(C)Cc1ccc2cc(-c3csc(-c4ccncc4)n3)c(=O)[nH]c2c1	> 6.00
CC(C)[C@H]1CN(Cc2ccc3cc(-c4csc(CS(=O)(=O)c5ccccc5)n4)c(=O)[nH]c3c2)CCN1	> 6.00
O=C(c1ccc2cc(-c3csc(CS(=O)(=O)c4ccccc4)n3)c(=O)[nH]c2c1)N1CCOCC1	> 6.00
O=c1[nH]c2cc(CN3CCC3)ccc2cc1-c1csc(-c2ccncc2)n1	> 6.00
O=c1[nH]c2cc(CN3CCCC3)ccc2cc1-c1csc(-c2ccncc2)n1	> 6.00
CN1CCN(c2ccc3[nH]c(=O)c(-c4csc(-c5ccncc5)n4)c(N)c3c2)CC1	> 6.00
CCN(CCN(C)C)Cc1ccc2cc(-c3csc(-c4ccncc4)n3)c(=O)[nH]c2c1	> 6.00
Nc1c(-c2csc(-c3ccncc3)n2)c(=O)[nH]c2ccc(N3CCCCC3)cc12	> 6.00
O=c1[nH]c2ccccc2cc1-c1csc(-c2ccnc(OCCN3CCCCC3)c2)n1	> 6.00
CC(C)C(CO)NCc1ccc2cc(-c3csc(-c4ccncc4)n3)c(=O)[nH]c2c1 (stereo not given)	> 6.00
O=c1[nH]c2ccccc2cc1-c1csc(C[S+]([O-])c2ccccc2)n1 (stereo not given)	> 6.00
O=c1[nH]c2ccc(F)cc2cc1-c1csc(-c2ccncc2)n1	> 6.00
COc1cc2[nH]c(=O)c(-c3csc(-c4ccncc4)n3)c(N)c2cc1OC	> 6.00
COc1ccc2cc(-c3csc(CS(=O)(=O)c4ccccc4)n3)c(=O)[nH]c2c1	> 6.00
Nc1ccc(-c2nc(-c3cc4ccccc4[nH]c3=O)cs2)cc1	> 6.00

SMILES	pIC50
O=c1[nH]c2cc(CN3CCOCC3)ccc2cc1-c1csc(-c2ccncc2)n1	> 6.00
CC(C)N(C)Cc1ccc2cc(-c3csc(-c4ccncc4)n3)c(=O)[nH]c2c1	> 6.00
CSc1nc2[nH]c(=O)c(-c3csc(-c4ccncc4)n3)cc2s1	> 6.00
COC(=O)c1ccc2cc(-c3csc(N(C)S(=O)(=O)c4ccccc4)n3)c(=O)[nH]c2c1	> 6.00
O=c1[nH]c2cc(CN3CCCCC3)ccc2cc1-c1csc(CS(=O)(=O)c2ccccc2)n1	> 6.00
O=c1[nH]c2ccccc2cc1-c1csc(CS(=O)(=O)c2cccs2)n1	> 6.00
CCN(CC)CCOc1cc(-c2nc(-c3cc4ccccc4[nH]c3=O)cs2)ccn1	> 6.00
CSc1ncc2cc(-c3csc(-c4ccncc4)n3)c(=O)[nH]c2n1	> 6.00
O=c1[nH]c2cc(C(F)(F)F)ccc2cc1-c1csc(CS(=O)(=O)c2ccccc2)n1	> 6.00
CN(c1nc(-c2cc3ccc(C(=O)O)cc3[nH]c2=O)cs1)S(=O)(=O)c1ccccc1	> 6.00
COc1ccc2cc(-c3csc(C(C)(C)S(=O)(=O)c4ccccc4)n3)c(=O)[nH]c2c1	> 6.00
COc1ccc2cc(-c3csc(-c4ccnc(Cl)c4)n3)c(=O)[nH]c2c1	> 6.00
CC1CC(C)CN(Cc2ccc3cc(-c4csc(CS(=O)(=O)c5ccccc5)n4)c(=O)[nH]c3c2)C1 (stereo not given)	> 6.00
Cc1onc(-c2ccccc2)c1-c1csc(-c2cc3ccccc3[nH]c2=O)n1	> 6.00
CC1CN(Cc2ccc3cc(-c4csc(-c5ccncc5)n4)c(=O)[nH]c3c2)CC(C)O1 (stereo not given)	> 6.00
O=c1[nH]c2cc3c(cc2cc1-c1csc(-c2ccncc2)n1)OCO3	> 6.00
O=c1[nH]c2cc(C(F)(F)F)ccc2cc1-c1csc(-c2ccncc2)n1	> 6.00
O=c1[nH]c2cc(CN3CCCCC3)ccc2cc1-c1csc(-c2ccncc2)n1	> 6.00
O=c1[nH]c2ccccc2cc1-c1nc(-c2ccncc2)cs1	> 6.00
CN(c1nc(-c2cc3ccccc3[nH]c2=O)cs1)S(=O)(=O)c1ccc(Br)cc1	> 6.00
O=c1[nH]c2ccccc2cc1-c1csc(-c2ccncc2)n1	> 6.00
O=c1[nH]c2ccccc2cc1-c1csc(-c2ccnc(N3CCCCC3)c2)n1	> 6.00

More lines, now with the values ahead:

pIC50	SMILES
> 6.00	Nc1c(-c2csc(-c3ccncc3)n2)c(=O)[nH]c2ccccc12
> 6.00	O=c1[nH]c2cc(C(F)(F)F)ccc2cc1-c1csc(CS(=O)(=O)c2cccs2)n1
> 6.00	CC1CN(Cc2ccc3cc(-c4csc(CS(=O)(=O)c5ccccc5)n4)c(=O)[nH]c3c2)CCN1 (stereo not given)
> 6.00	CC1CCCN(Cc2ccc3cc(-c4csc(CS(=O)(=O)c5ccccc5)n4)c(=O)[nH]c3c2)C1 (stereo not given)
> 6.00	O=c1[nH]c2cc(OCCN3CCOCC3)ccc2cc1-c1csc(-c2ccncc2)n1
> 6.00	O=c1[nH]c2ccccc2cc1-c1nc(-c2cccc([N+](=O)[O-])c2)cs1
> 6.00	CN1CCN(Cc2ccc3cc(-c4csc(-c5ccncc5)n4)c(=O)[nH]c3c2)CC1
> 6.00	Nc1c(-c2csc(-c3ccncc3)n2)c(=O)[nH]c2ccc(Cl)cc12
> 6.00	Nc1nc(-c2ccncc2)ncc1-c1nc(-c2cc3ccccc3[nH]c2=O)cs1
> 6.00	CC(C)N(C)Cc1ccc2cc(-c3csc(CS(=O)(=O)c4ccccc4)n3)c(=O)[nH]c2c1
> 6.00	C[C@@H]1CN(Cc2ccc3cc(-c4csc(CS(=O)(=O)c5ccccc5)n4)c(=O)[nH]c3c2)C[C@H](C)N1
> 6.00	CN1CCN(C(=O)c2ccc3cc(-c4csc(-c5ccncc5)n4)c(=O)[nH]c3c2)CC1
> 6.00	CCN(CC)CCN(C)c1ncc2cc(-c3csc(-c4ccncc4)n3)c(=O)[nH]c2n1
> 6.00	CCN(CC)Cc1ccc2cc(-c3csc(-c4ccncc4)n3)c(=O)[nH]c2c1
> 6.00	O=C(c1ccc2cc(-c3csc(-c4ccncc4)n3)c(=O)[nH]c2c1)N1CCCCC1
> 6.00	CCc1cc(-c2nc(-c3cc4cc(Cl)ccc4[nH]c3=O)cs2)ccn1
> 6.00	O=c1[nH]c2cc(CN3CC=CCC3)ccc2cc1-c1csc(CS(=O)(=O)c2ccccc2)n1
> 6.00	O=c1[nH]c2cc(CN3CCCC(O)C3)ccc2cc1-c1csc(-c2ccncc2)n1 (stereo not given)
> 6.00	CCN(CC)C(=O)c1cccc2[nH]c(=O)c(-c3csc(-c4ccncc4)n3)cc12
> 6.00	O=c1[nH]c2ccccc2cc1-c1csc(-c2cccnc2)n1
> 6.00	CN1CCN(C(=O)c2ccc3cc(-c4csc(CS(=O)(=O)c5ccccc5)n4)c(=O)[nH]c3c2)CC1
> 6.00	O=c1[nH]c2ccccc2cc1-c1csc(CS(=O)(=O)c2ccccc2)n1
> 6.00	O=c1[nH]c2cc(CO)ccc2cc1-c1csc(CS(=O)(=O)c2ccccc2)n1
> 6.00	CC1CN(Cc2ccc3cc(-c4csc(CS(=O)(=O)c5ccccc5)n4)c(=O)[nH]c3c2)CC(C)O1 (stereo not given)
> 6.00	CN1CCN(Cc2ccc3cc(-c4csc(CS(=O)(=O)c5ccccc5)n4)c(=O)[nH]c3c2)CC1
> 6.00	O=c1[nH]c2cc(CNC3CCCC3)ccc2cc1-c1csc(-c2ccncc2)n1

pIC50	SMILES
> 6.00	O=c1[nH]c2cc(CO)ccc2cc1-c1csc(-c2ccncc2)n1
> 6.00	CC(C)(c1nc(-c2cc3ccccc3[nH]c2=O)cs1)S(=O)(=O)c1ccccc1
> 6.00	O=c1[nH]c2cc(CN3CCC(O)CC3)ccc2cc1-c1csc(-c2ccncc2)n1
> 6.00	C=CCN(c1nc(-c2cc3ccccc3[nH]c2=O)cs1)S(=O)(=O)c1ccccc1
> 6.00	CC1CC(C)CN(Cc2ccc3cc(-c4csc(-c5ccncc5)n4)c(=O)[nH]c3c2)C1 (stereo not given)
> 6.00	O=c1[nH]c2ccccc2cc1-c1csc(-c2cccc(Cl)c2Cl)n1
> 6.00	CCc1cc(-c2nc(-c3cc4ccccc4[nH]c3=O)cs2)ccn1
> 6.00	CCN(CC)Cc1ccc2cc(-c3csc(CS(=O)(=O)c4ccccc4)n3)c(=O)[nH]c2c1
> 6.00	O=c1[nH]c2ccccc2cc1-c1csc(-c2ccc(-c3csnn3)cc2)n1
> 6.00	CC(C)NCc1ccc2cc(-c3csc(-c4ccncc4)n3)c(=O)[nH]c2c1
> 6.00	COc1ccc(-c2nc(-c3cc4ccccc4[nH]c3=O)cs2)cn1
> 6.00	O=c1[nH]c2ccccc2cc1-c1csc(CS(=O)(=O)c2ccccn2)n1
> 6.00	CN1CCN(C(=O)c2ccc3cc(-c4csc(N(C)S(=O)(=O)c5ccccc5)n4)c(=O)[nH]c3c2)CC1
> 6.00	O=C(c1ccc2cc(-c3csc(CS(=O)(=O)c4ccccc4)n3)c(=O)[nH]c2c1)N1CCCCC1
> 6.00	O=c1[nH]c2cc(O)ccc2cc1-c1csc(CS(=O)(=O)c2ccccc2)n1
> 6.00	CC1CCCN(Cc2ccc3cc(-c4csc(-c5ccncc5)n4)c(=O)[nH]c3c2)C1 (stereo not given)
> 6.00	O=c1[nH]c2ccccc2cc1-c1csc(-c2ccc(O)cc2)n1
> 6.00	COC(=O)c1cccc2[nH]c(=O)c(-c3csc(-c4ccncc4)n3)cc12
> 6.00	CCN(CCN(C)C)C(=O)c1ccc2cc(-c3csc(-c4ccncc4)n3)c(=O)[nH]c2c1
> 6.00	O=c1[nH]c2cc(C(F)(F)F)ccc2cc1-c1csc(-c2ccc3c(c2)OCO3)n1
> 6.00	O=c1ccc(-c2nc(-c3cc4ccccc4[nH]c3=O)cs2)c[nH]1
> 6.00	O=c1[nH]c2ccccc2c(O)c1-c1csc(-c2ccncc2)n1
> 6.00	CN(c1nc(-c2cc3ccccc3[nH]c2=O)cs1)S(=O)(=O)c1cccc(F)c1
> 6.00	CC1CN(Cc2ccc3cc(-c4csc(-c5ccncc5)n4)c(=O)[nH]c3c2)CCN1 (stereo not given)
> 6.00	CN(c1nc(-c2cc3ccccc3[nH]c2=O)cs1)S(=O)(=O)c1ccccc1
